Read-outs that look alike come from different tables or passages of the source.
How the values were obtained:
S. mansoni = experiment: Drug assay in vivo in S. mansoni-infected mice; parameters: species or system mice (NMRI); conditions: single oral dose 200 mg/kg
Protocol: The in vivo study was carried out in accordance with Swiss national and cantonal regulations on animal welfare under the permission number 545. Female mice (NMRI strain; 3-week-old; weight ca. 20–22 g) were purchased from Charles River, Germany. Rodents were kept under environmentally controlled conditions (temperature ~25 °C; humidity ~70%; 12 h light, 12 h dark cycle) with free access to water and rodent diet, and acclimatized for one week before infection. […]. Untreated mice (n = 4) served as controls in all experiments. Two weeks post-treatment mice were dissected and all worms counted. Worm burden reductions were calculated.

[1] = Cytotoxicity assay with the rat L6 cell line (resazurin); type: cell-based
Protocol: Cultures were maintained at 37 °C in an atmosphere of 5% CO2. […] Plates were incubated at 37 °C under a 5% CO2 atmosphere for 24 h. After that, compounds were dissolved in DMSO (10 mM or 10 mg/mL), serial drug dilutions of eleven 3-fold dilution steps covering a range from 100 to 0.002 μg/mL or 100 to 0.002 µM were prepared, and the plates incubated at 37 °C under 5% CO2 for 70 h. […] The results were expressed as percentage of the untreated controls. Fifty percent inhibitory concentrations (IC50) were estimated by linear interpolation.

[2] = test system: S. mansoni newly transformed schistosomula (NTS); experiment: Drug assay against S. mansoni NTS; type: cell-based, Schistosoma mansoni; conditions: for IC50: Schistosoma mansoni
Text: Harvested S. mansoni cercariae (Liberian strain) obtained from infected Biomphalaria glabrata snails were mechanically transformed into newly transformed schistosomula (NTS) following standard procedures as described. Artesunate and praziquantel were previously tested in the drug assay against S. mansoni NTS [39]. […] Culture medium was composed of M199 medium (Gibco, Waltham MA, USA) supplemented with 5% Horse Serum (Gibco, Waltham MA, USA), 1% penicillin/streptomycin mixture (Invitrogen, Carlsbad, CA, USA, 100 U/mL) and 1% Mäser Mix. Each compound was tested in triplicate. NTS incubated with no more than 1% DMSO served as control. NTS were kept in the incubator at 37 °C and 5% CO2 for up to 72 h. After 24, 48 and 72 h, the condition of the NTS was microscopically evaluated.

[3] = test system: P. falciparum strain NF54; experiment: [3H]-hypoxanthine incorporation assay, antiplasmodial activity; type: cell-based; conditions: Plasmodium falciparum
Protocol: Compounds were dissolved in DMSO at 10 mM, serial dilutions prepared in hypoxanthine-free culture medium (7-step dilution series; 2-fold serial dilutions) and 100 μL aliquots were dispensed in duplicates into 96-well cell culture plates. […] After incubation for 48 h, 0.25 μCi of [^3H]-hypoxanthine was added per well and plates were incubated for an additional 24 h. Parasites were harvested onto glass-fiber filters using a Microbeta FilterMate cell harvester (Perkin Elmer, Waltham, MA, USA) and radioactivity was counted using a MicroBeta2 liquid scintillation counter (Perkin Elmer, Waltham, MA, USA).

S. mansoni adult worms = experiment: Drug assay against ex vivo S. mansoni adult worms; type: cell-based, Schistosoma mansoni; conditions: for IC50: Schistosoma mansoni
Protocol: Female NMRI mice (age 3 weeks, weight ca. 14–20 g) were purchased from Charles River (Sulzfeld, Germany). […] To obtain adult schistosomes, NMRI mice were infected subcutaneously with 80 to 100 cercariae. After 49 days, the mice were euthanized with CO2 and the worms collected from the hepatic portal and mesenteric veins. […] Each compound was tested in duplicate. Artesunate and praziquantel were previously tested in the drug assay against S. mansoni adult worms. Schistosomes incubation with no more than 1% DMSO served as control. Worms were kept in an incubator at 37 °C and 5% CO2 for up to 72 h. After 24, 48 and 72 h, the condition of the worms was microscopically evaluated and scored as described above.

[4] = P. falciparum NF54, 3H-hypoxanthine incorporation, mean of 2 independent determinations, read-out: NF54 IC50

Structure (SMILES)	CC50 at 70 h ([1]; rat) [nM]	IC50 ([2]; 24 h) [nM]	IC50 ([2]; 48 h) [nM]	IC50 ([2]; 72 h) [nM]	Effect in % ± SD ([2]; test conc. 1 µM, 24 h) [%]	Effect in % ± SD ([2]; test conc. 1 µM, 48 h) [%]	Effect in % ± SD ([2]; test conc. 1 µM, 72 h) [%]	Effect in % ± SD ([2]; test conc. 10 µM, 24 h) [%]	Effect in % ± SD ([2]; test conc. 10 µM, 48 h) [%]	Effect in % ± SD ([2]; test conc. 10 µM, 72 h) [%]	IC50 [3, 4] [nM]	IC50 (S. mansoni adult worms; 24 h) [nM]	IC50 (S. mansoni adult worms; 48 h) [nM]	IC50 (S. mansoni adult worms; 72 h) [nM]	Effect in % ± SD (S. mansoni adult worms; test conc. 10 µM, 24 h) [%]	Effect in % ± SD (S. mansoni adult worms; test conc. 10 µM, 48 h) [%]	Effect in % ± SD (S. mansoni adult worms; test conc. 10 µM, 72 h) [%]	Effect in % ± SD (S. mansoni adult worms; test conc. 25 µM, 24 h) [%]	Effect in % ± SD (S. mansoni adult worms; test conc. 25 µM, 48 h) [%]	Effect in % ± SD (S. mansoni adult worms; test conc. 25 µM, 72 h) [%]	also measured
CC1=C(Cc2ccc(C(F)(F)F)cc2)C(=O)C2(C)CC=CC=C2C1=O (racemic) [Product 1, (±)-2,4a-dimethyl-3-(4-(trifluoromethyl)benzyl)-4a,5-dihydronaphthalene-1,4-dione]	22500	2700	2400	2000	18.87 ± 1.9	26.42 ± 1.9	28.57 ± 2	34.59 ± 1.3	35.35 ± 0.7	71.70 ± 9.4	1850 ± 458	800	200	600	53.7 ± 0.9	65.65 ± 3.1	66.7 ± 2.1	70.4 ± 3.7	73.15 ± 2.8	88.9 ± 0	Total WBR (worm burden reduction) (S. mansoni): 15.7%; Cures (S. mansoni; cured/treated): 0/4; Mean Number of Worms (SD) Females (S. mansoni; two weeks post-treatment): 10.8 (1.0); Mean Number of Worms (SD) Liver (S. mansoni; two weeks post-treatment): 0; Mean Number of Worms (SD) Mesenteric Veins (S. mansoni; two weeks post-treatment): 21.5 (1.9); Mean Number of Worms (SD) Total (S. mansoni; two weeks post-treatment): 21.5 (1.9); Effect in % ± SD ([2]; test conc. 25 µM, 24 h): 100 ± 0%; Effect in % ± SD ([2]; test conc. 25 µM, 48 h): 100 ± 0%; Effect in % ± SD ([2]; test conc. 25 µM, 72 h): 100 ± 0%; Effect in % ± SD (S. mansoni adult worms; test conc. 1 µM, 24 h): 53.3 ± 0%; Effect in % ± SD (S. mansoni adult worms; test conc. 1 µM, 48 h): 58.3 ± 0%; Effect in % ± SD (S. mansoni adult worms; test conc. 1 µM, 72 h): 59.15 ± 0.8%
CC1=C(Cc2ccc(C(F)(F)F)cc2)C(=O)C2=CC=CCC2(C)C1=O (racemic) [Product 2, (±)-3,4a-dimethyl-2-(4-(trifluoromethyl)benzyl)-4a,5-dihydronaphthalene-1,4-dione]	25600	17400	8500	1700	20.75 ± 0	32.08 ± 0	36.73 ± 2	34.52 ± 6.2	51.43 ± 8.6	86.79 ± 1.9	2390 ± 825	22700	17300	15200	42.75 ± 1	48.05 ± 2.9	50 ± 0	44.4 ± 0	49.05 ± 0.9	51.9 ± 0	–
CCN(CC)CCCC(C)Nc1ccnc2cc(Cl)ccc12 (stereo not shown) [CQ diphosphate, Chloroquine diphosphate, reference compound]	–	–	–	–	–	–	–	–	–	–	–	–	–	–	–	–	–	–	–	–	IC50 ([3]; NF54, read-out: NF54 IC50): 4 ng/mL
COc1cc([C@@H]2c3cc4c(cc3[C@H](O)[C@H]3COC(=O)[C@H]23)OCO4)cc(OC)c1OC [Podophyllotoxin, podophyllotoxin, reference compound]	–	–	–	–	–	–	–	–	–	–	–	–	–	–	–	–	–	–	–	–	CC50 at 70 h ([1]; rat L6 cells, 70 h incubation, resazurin, read-out: L6 CC50): 10 nM
C[C@H]1[C@H](OC(=O)CCC(=O)O)O[C@@H]2O[C@@]3(C)CC[C@H]4[C@H](C)CC[C@@H]1[C@@]24OO3 [artesunate, reference compound]	–	–	–	–	–	–	–	–	–	–	–	–	–	–	–	–	–	–	–	–	IC50 ([3]; P. falciparum NF54, reference compounds, values printed in ng/mL, read-out: NF54 IC50): 1.52 ng/mL
